{"source": "patent US20160324152A1", "about": "“Compositions And Methods For Killing And/Or Immobilizing Insects” (The United States of America, as represented by the …, priority 2015, published 2016)", "system": "Solenopsis invicta workers", "details": "topical", "experimental": "Topical Bioassay: Mortalities of S. invicta workers after topical treatment with Ethal TDA surfactants were determined. For ease of handling and obtaining uniform body weight, only large workers were used in the bioassay. Acetone was used as a solvent. The solution (10% w/v) was applied with a 0.779 μl capillary tube. All surfactants were tested at a concentration of 77.9 μg/ant. In the control, ants were only treated with 0.779 μl acetone. Treated ants were placed in a 30-ml capped cup at room temperature (˜23° C.) and dead ants were counted at 24 h. Three colonies were originally tested. There were 3-6 replicates for each colony. A single replicate consisted of 17 to 20 ants. In order to assess the mortality at 48 h, another three colonies were tested. For these three colonies, dead ants were counted at both 24 h and 48 h. Mortalities were adjusted using Abbott's formula (Abbott, W. S., J. Econ. Entomol., 18: 265-267 (1925)) before being used in statistical analysis. For analyzing 24 h mortality, data for all six colonies were used.\nWe also tested the toxicity of piperonyl butoxide (PBO) against red imported fire ants. […] Topical bioassay as described above was used: Mortalities of S. invicta workers after topical treatment with PBO were determined. […] Treated ants were placed in a 30-ml capped cup at room temperature (˜23° C.) and dead ants were counted at 24 h. […]", "note": "Read-outs that look alike come from different tables or passages of the source."}
{"smiles": "CCCCCCCCCCCC(C)=O", "note": "[2-tridecanone]", "values": [{"measurement": "LD50", "setting": "colony 288, PBO 0 μg/ant", "result": 18.96, "unit": "μg/ant"}, {"measurement": "LD50", "setting": "colony 295, PBO 0 μg/ant", "result": 22.82, "unit": "μg/ant"}]}
